# In the supplement of paper PMC10307832:
# How the values were obtained:
# Assay in all cases: relative viability (nuclei count vs DMSO), 5 days (fraction); higher = more cells survive
# NCI-H1734 = system: NCI-H1734
# How it was run: (§1)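 The day after seeding in 1536-well plates, lung cancer cell lines were treated by pin tool with a single drug, or with a fixed anchor-drug dose together with five library-drug doses (not always all listed) in √10 steps. After 5 days, a combined fix-and-stain solution (final 0.05% Triton X-100, 1% formaldehyde, 1 ug/ml Hoechst) was added. Nuclei counted on 4× images gave relative viability as treated counts over vehicle counts, reported as the median of duplicate plates.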
# NCI-H2405 = system: NCI-H2405
# How it was run: as §1
# NCI-H2347 = system: NCI-H2347
# How it was run: as §1
# NCI-H322M = system: NCI-H322M
# How it was run: as §1
# NCI-H520 = system: NCI-H520
# How it was run: as §1
# NCI-H2023 = system: NCI-H2023
# How it was run: as §1
# HCC-15 = system: HCC-15
# How it was run: as §1
# NCI-H1563 = system: NCI-H1563
# How it was run: as §1
# NCI-H1793 = system: NCI-H1793
# How it was run: as §1
# H3255 = system: H3255
# How it was run: as §1
# 201T = system: 201T
# How it was run: as §1
# COR-L23 = system: COR-L23
# How it was run: as §1
# EPLC-272H = system: EPLC-272H
# How it was run: as §1
# LOU-NH91 = system: LOU-NH91
# How it was run: as §1
# NCI-H3122 = system: NCI-H3122
# How it was run: as §1
# NCI-H441 = system: NCI-H441
# How it was run: as §1
# PC-14 = system: PC-14
# How it was run: as §1
# UMC-11 = system: UMC-11
# How it was run: as §1
# NCI-H647 = system: NCI-H647
# How it was run: as §1
smiles,measurement,setting,value
O=c1cc(N2CCOCC2)oc2c(-c3cccc4c3sc3ccccc34)cccc12 + C[C@]1(O)C[C@@H](c2nc(-c3ccc4ccc(-c5ccccc5)nc4c3)c3c(N)nccn32)C1 [Linsitinib] (partner 1 µM),relative viability,NCI-H1734; first compound 0.01 µM,0.963
same,relative viability,NCI-H1734; first compound 0.03162 µM,1.03
same,relative viability,NCI-H1734; first compound 0.1 µM,0.906
same,relative viability,NCI-H1734; first compound 0.3162 µM,0.843
same,relative viability,NCI-H1734; first compound 1 µM,0.89
same,relative viability,NCI-H2405; first compound 0.01 µM,0.972
same,relative viability,NCI-H2405; first compound 0.03162 µM,1.01
same,relative viability,NCI-H2405; first compound 0.1 µM,1.01
same,relative viability,NCI-H2405; first compound 0.3162 µM,0.924
same,relative viability,NCI-H2405; first compound 1 µM,0.955
same,relative viability,NCI-H2347; first compound 0.01 µM,1.02
same,relative viability,NCI-H2347; first compound 0.03162 µM,0.943
same,relative viability,NCI-H2347; first compound 0.1 µM,0.962
same,relative viability,NCI-H2347; first compound 0.3162 µM,0.926
same,relative viability,NCI-H2347; first compound 1 µM,0.945
same,relative viability,NCI-H322M; first compound 0.01 µM,0.913
same,relative viability,NCI-H322M; first compound 0.03162 µM,0.915
same,relative viability,NCI-H322M; first compound 0.3162 µM,0.993
same,relative viability,NCI-H322M; first compound 1 µM,0.83
same,relative viability,NCI-H520; first compound 0.01 µM,1.02
same,relative viability,NCI-H520; first compound 0.03162 µM,1.01
same,relative viability,NCI-H520; first compound 0.1 µM,1.22
same,relative viability,NCI-H520; first compound 0.3162 µM,0.923
same,relative viability,NCI-H520; first compound 1 µM,0.876
same,relative viability,NCI-H2023; first compound 0.01 µM,0.735
same,relative viability,NCI-H2023; first compound 0.03162 µM,0.66
same,relative viability,NCI-H2023; first compound 0.1 µM,0.603
same,relative viability,NCI-H2023; first compound 0.3162 µM,0.564
same,relative viability,NCI-H2023; first compound 1 µM,0.557
same,relative viability,HCC-15; first compound 0.01 µM,0.786
same,relative viability,HCC-15; first compound 0.03162 µM,0.869
same,relative viability,HCC-15; first compound 0.1 µM,0.936
same,relative viability,HCC-15; first compound 0.3162 µM,0.902
same,relative viability,HCC-15; first compound 1 µM,0.847
same,relative viability,NCI-H1563; first compound 0.01 µM,1.18
same,relative viability,NCI-H1563; first compound 0.03162 µM,1.21
same,relative viability,NCI-H1563; first compound 0.1 µM,1.19
same,relative viability,NCI-H1563; first compound 0.3162 µM,1.14
same,relative viability,NCI-H1563; first compound 1 µM,1
same,relative viability,NCI-H1793; first compound 0.01 µM,0.809
same,relative viability,NCI-H1793; first compound 0.03162 µM,0.872
same,relative viability,NCI-H1793; first compound 0.1 µM,0.517
same,relative viability,NCI-H1793; first compound 0.3162 µM,0.813
same,relative viability,NCI-H1793; first compound 1 µM,0.68
same,relative viability,H3255; first compound 0.01 µM,1
same,relative viability,H3255; first compound 0.03162 µM,0.988
same,relative viability,H3255; first compound 0.1 µM,1.14
same,relative viability,H3255; first compound 0.3162 µM,0.95
same,relative viability,H3255; first compound 1 µM,1.09
same,relative viability,201T; first compound 0.01 µM,1.04
same,relative viability,201T; first compound 0.03162 µM,1.03
same,relative viability,201T; first compound 0.1 µM,1.03
same,relative viability,201T; first compound 0.3162 µM,1.01
same,relative viability,201T; first compound 1 µM,1.05
same,relative viability,COR-L23; first compound 0.01 µM,0.891
same,relative viability,COR-L23; first compound 0.03162 µM,0.877
same,relative viability,COR-L23; first compound 0.1 µM,1
same,relative viability,COR-L23; first compound 0.3162 µM,0.923
same,relative viability,COR-L23; first compound 1 µM,0.882
same,relative viability,EPLC-272H; first compound 0.01 µM,0.987
same,relative viability,EPLC-272H; first compound 0.03162 µM,1.17
same,relative viability,EPLC-272H; first compound 0.3162 µM,1.31
same,relative viability,EPLC-272H; first compound 1 µM,1.1
same,relative viability,LOU-NH91; first compound 0.01 µM,0.857
same,relative viability,LOU-NH91; first compound 0.03162 µM,0.937
same,relative viability,LOU-NH91; first compound 0.1 µM,0.938
same,relative viability,LOU-NH91; first compound 0.3162 µM,1.03
same,relative viability,LOU-NH91; first compound 1 µM,0.936
same,relative viability,NCI-H3122; first compound 0.01 µM,1.01
same,relative viability,NCI-H3122; first compound 0.03162 µM,0.977
same,relative viability,NCI-H3122; first compound 0.1 µM,1.12
same,relative viability,NCI-H3122; first compound 0.3162 µM,1.03
same,relative viability,NCI-H3122; first compound 1 µM,0.944
same,relative viability,NCI-H441; first compound 0.01 µM,0.53
same,relative viability,NCI-H441; first compound 0.03162 µM,0.518
same,relative viability,NCI-H441; first compound 0.1 µM,0.582
same,relative viability,NCI-H441; first compound 0.3162 µM,0.555
same,relative viability,NCI-H441; first compound 1 µM,0.594
same,relative viability,PC-14; first compound 0.01 µM,0.998
same,relative viability,PC-14; first compound 0.03162 µM,0.934
same,relative viability,PC-14; first compound 0.1 µM,0.952
same,relative viability,PC-14; first compound 0.3162 µM,0.952
same,relative viability,PC-14; first compound 1 µM,0.848
same,relative viability,UMC-11; first compound 0.01 µM,1.07
same,relative viability,UMC-11; first compound 0.03162 µM,1.03
same,relative viability,UMC-11; first compound 0.1 µM,1.01
same,relative viability,UMC-11; first compound 0.3162 µM,1.02
same,relative viability,UMC-11; first compound 1 µM,1.06
same,relative viability,NCI-H647; first compound 0.01 µM,1.02
same,relative viability,NCI-H647; first compound 0.03162 µM,1.24
same,relative viability,NCI-H647; first compound 0.1 µM,1.22
same,relative viability,NCI-H647; first compound 0.3162 µM,1.09
same,relative viability,NCI-H647; first compound 1 µM,0.954
